Test results reported in article PMC4920673, “Nitroimidazole carboxamides as antiparasitic agents targeting Giardia lamblia, Entamoeba histolytica and Trichomonas vaginalis” (European Journal of Medicinal Chemistry, 2016).
Converted amounts (≈) assume the structure as drawn. Read-outs that look alike come from different tables or passages of the source.

Columns and labels:
[1] = Resazurin cytotoxicity assay, HepG2; format: cell-based, Human; conditions: human, 24 h, highest concentration 100 μM, n = 3, read-out: CC50 Hep G2
In short: (§1)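 Cells pre-cultured 24 h in DMEM/10% FBS at 37 °C, then exposed 24 h to compound dilution series (top 100 μM). Viability by 5 μM resazurin, 2 h, fluorescence 560/590 nm; 1% Triton X-100 as lysis control; CC50 from curve fitting.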

giardiasis = conditions: cited from earlier work
[2] = cited from earlier work
G. lamblia WB (MtzS) = experiment: ATP-bioluminescence growth/survival EC50 assay, G. lamblia WB; conditions: for EC50: Giardia duodenalis; for S.I (CC50/EC50): average cytotoxicity against HEK293 and HepG2 / G. lamblia WB activity
Procedure: (§2) Compounds were screened for antiparasitic activity using an ATP-bioluminescence based assay for cell growth and survival, [24]. […] Viable cell numbers were determined in triplicate using the CellTiter-Glo Luminescent Cell Viability Assay.

E. histolytica HM1:IMSS = experiment: ATP-bioluminescence growth/survival EC50 assay, E. histolytica; format: cell-based, Entamoeba histolytica; conditions: Entamoeba histolytica
Procedure: as §2

[3] = Metabolic stability in liver microsomes; format: in vitro ADME, human
Procedure: Metabolic stability studies were performed with human liver microsomes (HMMC-PL, Lot# PL050B-B, Thermo Fisher Scientific USA) with test compound (5 μM) degradation monitored by LC/MS/MS analysis. Stock solutions (2.5 mM) of the test compounds were prepared in DMSO. […] The reaction was initiated by addition of NADPH solution (cofactor) in potassium phosphate buffer (final concentration 1 mM). Aliquots (180 μL) from the reaction mixture were withdrawn (t = 0, 10, 30, 60 and 120 min) and quenched by adding ice-cold stop solution (540 μL) comprising 0.5 μM carbutamide internal standard in acetonitrile: methanol: formic acid (1: 1: 0.001). Reaction samples were incubated at 4 °C for 30 min, centrifuged at 14,000 × g for 8 min and the clear supernatant was transferred to a vial for LC/MS/MS analysis. The percentage of compound metabolised at different times was calculated as a percentage of the levels at the start of incubation (t = 0 min sample). Matrix blank was also prepared as a control. […] LC/MS/MS parameters are detailed in the supplementary information (Supplementary Table 1).

[4] = tested on: G. lamblia WB trophozoites; experiment: Light microscopy of G. lamblia WB growth and survival; format: cell-based, Giardia lamblia; conditions: for Parasite cell growth by microscopy: 3 × EC50 (metronidazole 18 μM, 12a 1.5 μM), 48 h, relative to vehicle control; for Morphology of treated G. lamblia: 3 × EC50, 48 h, phase contrast
Procedure: The effect of compounds on G. lamblia WB growth and survival was examined by light microscopy. Briefly, stock compounds were diluted in DMSO (100%) to give 400 × final concentration of compound. […]. Assay plates were incubated for 48 h at 37 °C in the GasPak™ EZ Anaerobe Gas Generating Pouch Systems (VWR, West Chester, PA) to maintain anaerobic conditions throughout the incubation period. The assays were performed in triplicate (3 wells/treatment). […]

Giardia = tested on: Giardia; parameters: method as in PMID 23403423; conditions: cited from earlier work
[5] = tested on: C. difficile 630 (ATCC BAA-1382); experiment: Broth microdilution MIC assay, C. difficile 630; format: cell-based, Clostridium difficile; conditions: Clostridioides difficile, ATCCBAA1382
In short: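 Compounds two-fold serially diluted against overnight anaerobic BHIS cultures of the strain, following CLSI methods modified in broth and inoculum for C. difficile. Plates incubated 24 h at 37 °C; MIC is the lowest concentration without visible growth, median reported with range.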

G. lamblia 713M3 (MtzR) = experiment: ATP-bioluminescence growth/survival EC50 assay, G. lamblia 713M3; format: cell-based, Giardia lamblia; conditions: Giardia duodenalis
Procedure: as §2

[6] = Plasma protein binding by ultrafiltration; format: in vitro ADME; conditions: human; for fraction unbound at 0.5 h, 5 µM: read-out: Plasma protein binding (% bound) (converted)
Procedure: Plasma Protein Binding (PPB) was performed using an Ultrafiltration method, [28]. […] Samples were incubated at […] for 30 min, then centrifuged at 14,000 × g for 8 min, with the clear supernatant transferred to a vial for LC/MS/MS analysis. […] The fraction of unbound compound was calculated by determining the concentration of the filtered sample and the concentration of unfiltered sample. […] LC/MS/MS parameters are detailed in the supplementary information (Supplementary Table 1).

[7] = Resazurin cytotoxicity assay, HEK293; format: cell-based, Human; conditions: human, 24 h, highest concentration 100 μM, n = 3, read-out: CC50 HEK 293
In short: as §1

T. vaginalis F1623 = experiment: ATP-bioluminescence growth/survival EC50 assay, T. vaginalis; format: cell-based, Trichomonas vaginalis; conditions: Trichomonas vaginalis
Procedure: as §2

[8] = tested on: C. difficile NAP1/027 (ATCC BAA-1803); experiment: Broth microdilution MIC assay, C. difficile NAP1/027; format: cell-based, Clostridium difficile; conditions: Clostridioides difficile, ATCCBAA1803; strain NAP1/027
In short: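 Strains grown anaerobically in BHIS at 37 °C overnight; compounds two-fold serially diluted (64 to 0.03 μg/mL) in pre-reduced medium under anaerobic atmosphere (5% H2, 10% CO2, 85% N2). Plates incubated 24 h at 37 °C; MIC taken as lowest concentration without visible growth, median of replicates reported.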

H. meleagridis = tested on: H. meleagridis; parameters: method as in earlier work; conditions: turkey; cited from earlier work
T. vaginalis = tested on: T. vaginalis; parameters: method as in earlier work; conditions: cited from earlier work
[9] = read-out: EC50 G. lamblia WB, MtzS strain WB, minimum n = 3
[10] = read-out: pEC50 ± SE G. lamblia WB, MtzS strain WB (converted)
[11] = strain 630, MtzS, median of n = 4, read-out: MIC C. difficile 630
[12] = read-out: EC50 G. lamblia 713M3, MtzR strain 713M3, minimum n = 3
[13] = read-out: pEC50 ± SE G. lamblia 713M3, MtzR strain 713M3 (converted)
[14] = read-out: EC50 E. histolytica HM1:IMSS
[15] = read-out: pEC50 ± SE E. histolytica HM1:IMSS (converted)
[16] = 5 μM, human liver microsomes 1 mg/mL, NADPH
[17] = pooled human plasma (100%), 5 μM, 100% human plasma, 37 °C, 30 min, ultrafiltration
[18] = read-out: EC50 T. vaginalis F1623, MtzS, minimum n = 3
[19] = read-out: pEC50 ± SE T. vaginalis F1623, MtzS (converted)

| SMILES | CC50 at 24 h ([1]; HepG2 cells) [µM] | EC50 (G. lamblia WB (MtzS); [9]) [µM] | EC50 (G. lamblia WB (MtzS); [10]) [µM] | MIC [5, 11] [µg/mL] | EC50 (G. lamblia 713M3 (MtzR); [12]) [µM] | EC50 (G. lamblia 713M3 (MtzR); [13]) [µM] | CC50 at 24 h ([7]; HEK293 cells) [µM] | MIC [8] [µg/mL] | S.I (CC50/EC50) (G. lamblia WB (MtzS)) | EC50 (E. histolytica HM1:IMSS; [14]) [µM] | EC50 (E. histolytica HM1:IMSS; [15]) [µM] | Microsome stability (% remaining at 2 h) [3, 16] [% remaining] | fraction unbound at 0.5 h, 5 µM [6, 17] | EC50 (T. vaginalis F1623; [18]) [µM] | EC50 (T. vaginalis F1623; [19]) [µM] | also measured |
| --- | --- | --- | --- | --- | --- | --- | --- | --- | --- | --- | --- | --- | --- | --- | --- | --- |
| Cc1ncc([N+](=O)[O-])n1CCO [Compound 1, Metronidazole, reference compound] | > 100 | 6.1 | 6.17 | 0.5 (≈ 2.92 µM) | 18 | 18.2 | > 100 | 0.5 (≈ 2.92 µM) | – | – | – | – | – | – | – | Treatment failure in giardiasis cases (giardiasis): up to 20%; Plasma protein binding [2]: mostly unbound; EC50 (G. lamblia WB (MtzS); read-out: EC50 against G. lamblia strains, G. lamblia strains including metronidazole-resistant strains, stated together): 6.1 to 18 µM; EC50 (E. histolytica HM1:IMSS; MtzS, minimum n = 3, read-out: EC50 E. histolytica HM1:IMSS): 5 µM; EC50 (E. histolytica HM1:IMSS; MtzS, read-out: pEC50 ± SE E. histolytica HM1:IMSS (converted)): 5.01 µM; Microsome stability (% remaining at 2 h) ([3]; human, microsomes): 100 % remaining; Parasite cell growth by microscopy [4]: inhibited; Morphology of treated G. lamblia [4]: remained similar to the vehicle control; Effect on Giardia cells in prior study (Giardia): slowed the rate of oscillation of the Giardia flagella; MIC ([5]; 630 and NAP1/027 strains together or strain not given, read-out: MIC C. difficile): 0.5 µg/mL (≈ 2.92 µM); fraction unbound at 30 min, 5 μM ([6]; plasma, Plasma protein binding (% bound)): > 0.95; EC50 (T. vaginalis F1623; MtzS, minimum n = 3, read-out: EC50 T. vaginalis F1623): 0.8 µM; EC50 (T. vaginalis F1623; MtzS, read-out: pEC50 ± SE T. vaginalis F1623 (converted)): 0.794 µM |
| CCS(=O)(=O)CCn1c([N+](=O)[O-])cnc1C [Compound 2, tinidazole] | – | – | – | – | – | – | – | – | – | – | – | – | – | – | – | Plasma protein binding [2]: mostly unbound |
| Cn1c([N+](=O)[O-])cnc1C(=O)NCc1ccc(F)cc1 [Compound 8a, N-(4-fluorobenzyl)-1-methyl-5-nitro-1H-imidazole-2-carboxamide] | > 100 | 3.5 | 3.47 | > 64 | 13 | 12.9 | > 100 | > 64 | >29 | 9.7 | 9.77 | 88 | 0.05 | 5.2 | 5.25 | fraction unbound at 30 min, 5 μM ([6]; pooled human plasma (100%), 5 μM, 100% human plasma, 37 °C, 30 min, ultrafiltration, read-out: Plasma protein binding (% bound)): ≤ 0.06 |
| CN(C)C(=O)c1ncc([N+](=O)[O-])n1C [Compound 8g, N,N,1-trimethyl-5-nitro-1H-imidazole-2-carboxamide] | > 100 | 2.4 | 2.4 | 32 (≈ 161 µM) | > 20 | > 20 | > 100 | 64 (≈ 323 µM) | >42 | 14 | 14.1 | – | – | 1.3 | 1.29 | Activity in in vivo model of H. meleagridis infection (H. meleagridis): activity; Activity in in vivo mouse model of T. vaginalis infection (T. vaginalis): activity |
| Cn1c([N+](=O)[O-])cnc1C(=O)N1CCOCC1 [Compound 8h, (1-methyl-5-nitro-1H-imidazol-2-yl)(morpholino)methanone] | > 100 | 1.6 | 1.58 | 32 (≈ 133 µM) | 11 | 11.2 | > 100 | 32 (≈ 133 µM) | >63 | 14 | 14.1 | 97 | 0.91 | 0.6 | 0.575 | Activity in in vivo model of H. meleagridis infection (H. meleagridis): activity; Activity in in vivo mouse model of T. vaginalis infection (T. vaginalis): activity |
| O=C(NCc1ccc(F)cc1)c1ncc([N+](=O)[O-])[nH]1 [Compound 12a, N-(4-fluorobenzyl)-5-nitro-1H-imidazole-2-carboxamide] | – | 0.5 | 0.525 | 4 (≈ 15.1 µM) | 2.4 | 2.34 | – | 4 (≈ 15.1 µM) | – | 3.6 | 3.63 | 94 | – | 2.3 | 2.34 | CC50 at 24 h [1]: > 100 µM; Parasite cell growth by microscopy [4]: inhibited; Morphology of treated G. lamblia [4]: altered; CC50 at 24 h [7]: > 100 µM |
| O=C(c1ncc([N+](=O)[O-])[nH]1)N1CCOCC1 [Compound 12h, Morpholino(5-nitro-1H-imidazol-2-yl)methanone] | > 100 | 8.8 | 8.71 | 2 (≈ 8.84 µM) | > 20 | > 20 | > 100 | 2 (≈ 8.84 µM) | >11 | 5.1 | 5.13 | 100 | 0.22 | 2.9 | 2.88 | – |
| CCOC(=O)c1nc([N+](=O)[O-])cn1Cc1ccc(OC(F)(F)F)cc1 [Compound 14c, Ethyl 4-nitro-1-(4-(trifluoromethoxy)benzyl)-1H-imidazole-2-carboxylate] | – | 6 | 6.03 | > 64 | – | – | – | > 64 | >17 | 51 | 51.3 | – | – | – | – | CC50 at 24 h [1]: > 100 µM; melting point: 112 °C; CC50 at 24 h [7]: > 100 µM |
| CC(=O)OC[C@H]1O[C@@H]([S-])[C@H](OC(C)=O)[C@@H](OC(C)=O)[C@@H]1OC(C)=O.CCP(CC)CC.[Au+] [auranofin] | – | – | – | – | – | – | – | – | – | – | – | – | – | – | – | Effect on Giardia cells in prior study (Giardia): caused cell blebbing |
| O=C(Nc1ncc([N+](=O)[O-])s1)c1ccccc1O [tizoxanide] | – | – | – | – | – | – | – | – | – | – | – | – | – | – | – | Plasma protein binding ([2]; active metabolite of nitazoxanide): highly plasma protein bound |
